In ChEMBL document CHEMBL2177025, “Chemical proteomics-based analysis of off-target binding profiles for rosiglitazone and pioglitazone: clues for assessing potential for cardiotoxicity” (J Med Chem, 2012) one finds Activity and fold change (FC) data, which are given here for two compounds.

Calls of active or inactive are those of the source. The calls are words filed in the database; no cut-off is given here.

The target in experiment [1] is Transcription factor SOX-5 (Mus musculus) (UniProt P35710). Kind of experiment: Binding affinity to mouse transcription factor SOX-5 after 15 mins by chromatographic analysis.
Experiment [2] deals with 26S proteasome non-ATPase regulatory subunit 1 (Rattus norvegicus) (UniProt O88761). The experiment can be described thus: Binding affinity to 26S proteasome non-ATPase regulatory subunit 1 in Sprague-Dawley rat heart homogenate after 15 mins by chromatographic analysis. The format is tissue-based.
Experiment [3] concerns the target Neuronal acetylcholine receptor subunit alpha-10 (Rattus norvegicus) (UniProt Q9JLB5). The experiment can be described thus: Binding affinity to neuronal acetylcholine receptor subunit alpha-10 in Sprague-Dawley rat heart homogenate after 15 mins by chromatographic analysis. The class given is tissue-based.
Experiment [4] concerns the target Multiple PDZ domain protein (Mus musculus) (UniProt Q8VBX6). The experiment can be described thus: Binding affinity to mouse multiple PDZ domain protein by chromatographic analysis.
Experiment [5] has as its target Serine/threonine-protein kinase MAK (Mus musculus) (UniProt Q04859). Kind of experiment: Binding affinity to mouse serine/threonine-protein kinase MAK by chromatographic analysis.
The target in experiment [6] is Importin-7 (Mus musculus) (UniProt Q9EPL8). Kind of experiment: Binding affinity to mouse importin-7 by chromatographic analysis.
In experiment [7] the target is Kalirin (Rattus norvegicus) (UniProt P97924). Kind of experiment: Binding affinity to Huntingtin-associated protein-interacting protein in Sprague-Dawley rat heart homogenate after 15 mins by chromatographic analysis. The format is tissue-based.
Experiment [8] has as its target Dynactin subunit 1 (Mus musculus) (UniProt O08788). Kind of experiment: Binding affinity to mouse dynactin-1 by chromatographic analysis.
The target of experiment [9] is T1, Cardiotrophin-like cytokine factor 1 (Mus musculus) (UniProt Q9QZM3).
T1 sequence (whole entry): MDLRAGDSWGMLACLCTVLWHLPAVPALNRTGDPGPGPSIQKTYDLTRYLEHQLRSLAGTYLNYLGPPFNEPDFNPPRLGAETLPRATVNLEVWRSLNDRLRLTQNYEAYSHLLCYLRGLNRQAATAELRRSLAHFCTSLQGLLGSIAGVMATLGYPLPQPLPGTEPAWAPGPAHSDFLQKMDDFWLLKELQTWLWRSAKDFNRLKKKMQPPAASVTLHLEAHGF
Kind of experiment: Binding affinity to mouse cardiotrophin-like cytokine factor 1 by chromatographic analysis.

A further experiment concerns the target Dystonin (Mus musculus) (UniProt Q91ZU6). Kind of experiment: Binding affinity to mouse bullous pemphigoid antigen 1 by chromatographic analysis.
For experiment [10], the target named is Afadin- and alpha-actinin-binding protein (Rattus norvegicus) (UniProt Q8CGZ2). The experiment can be described thus: Binding affinity to afadin- and alpha-actinin-binding protein in Sprague-Dawley rat heart homogenate after 15 mins by chromatographic analysis. The class given is tissue-based.
Experiment [11] has as its target Voltage-dependent L-type calcium channel subunit alpha-1F (Mus musculus) (UniProt Q9JIS7). Kind of experiment: Binding affinity to mouse voltage-dependent L-type calcium channel alpha-1F subunit by chromatographic analysis.
Experiment [12] has as its target Trace amine-associated receptor 7b (Mus musculus) (UniProt Q5QD11). The experiment can be described thus: Binding affinity to mouse trace amine-associated receptor 7b by chromatographic analysis.
Experiment [13] concerns the target H(+)/Cl(-) exchange transporter 6 (Mus musculus) (UniProt O35454). The experiment can be described thus: Binding affinity to mouse chloride channel protein 6 after 15 mins by chromatographic analysis.
Experiment [14] addresses Protein-tyrosine kinase 2-beta (Rattus norvegicus) (UniProt P70600). The experiment can be described thus: Binding affinity to focal adhesion kinase 2 in Sprague-Dawley rat heart homogenate after 15 mins by chromatographic analysis. The class given is tissue-based.
Experiment [15] deals with ATP synthase F(1) complex subunit alpha, mitochondrial (Rattus norvegicus) (UniProt P15999). The experiment can be described thus: Binding affinity to mitochondrial ATP synthase alpha chain in Sprague-Dawley rat heart homogenate after 15 mins by chromatographic analysis. The format is tissue-based.
Experiment [16] concerns the target Serine/threonine-protein kinase WNK1 (Mus musculus) (UniProt P83741). Kind of experiment: Binding affinity to mouse serine/threonine-protein kinase WNK1 by chromatographic analysis relative to rosiglitazone.
Experiment [17] has as its target Endoplasmic reticulum membrane adapter protein XK (Mus musculus) (UniProt Q9QXY7). Kind of experiment: Binding affinity to mouse membrane transport protein XK by chromatographic analysis relative to pioglitazone.
In experiment [18] the target is Ras/Rap GTPase-activating protein SynGAP (Rattus norvegicus) (UniProt Q9QUH6). The experiment can be described thus: Binding affinity to RasGTPase-activating protein SynGAP in Sprague-Dawley rat heart homogenate after 15 mins by chromatographic analysis relative to pioglitazone. The class given is tissue-based.
Experiment [19] deals with Protein kinase C and casein kinase substrate in neurons protein 2 (Mus musculus) (UniProt Q9WVE8). The experiment can be described thus: Binding affinity to mouse protein kinase C and casein kinase substrate in neurons protein 2 by chromatographic analysis.
The target in another experiment is Norrin (Mus musculus) (UniProt P48744). Kind of experiment: Binding affinity to mouse norrin precursor by chromatographic analysis.
Experiment [20] addresses T2, Dihydrolipoyl dehydrogenase, mitochondrial (Mus musculus) (UniProt O08749).
T2 sequence (whole entry): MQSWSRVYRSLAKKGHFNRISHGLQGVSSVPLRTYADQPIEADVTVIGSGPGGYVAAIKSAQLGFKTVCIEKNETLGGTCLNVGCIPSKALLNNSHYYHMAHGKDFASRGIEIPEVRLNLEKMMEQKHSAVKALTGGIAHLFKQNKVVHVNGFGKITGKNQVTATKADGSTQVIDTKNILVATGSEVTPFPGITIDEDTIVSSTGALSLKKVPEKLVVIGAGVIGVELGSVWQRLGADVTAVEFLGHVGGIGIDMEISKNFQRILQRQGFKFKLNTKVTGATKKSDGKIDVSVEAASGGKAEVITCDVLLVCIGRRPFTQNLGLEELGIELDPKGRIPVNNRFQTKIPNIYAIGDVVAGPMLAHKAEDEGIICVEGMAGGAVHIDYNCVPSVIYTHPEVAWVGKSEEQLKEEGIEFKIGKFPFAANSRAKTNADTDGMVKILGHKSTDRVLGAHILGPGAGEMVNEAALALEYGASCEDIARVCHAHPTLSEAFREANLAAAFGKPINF
The experiment can be described thus: Binding affinity to mouse mitochondrial dihydrolipoyl dehydrogenase by chromatographic analysis relative to rosiglitazone.

In experiment [21] the target is T3, Long-chain specific acyl-CoA dehydrogenase, mitochondrial (Rattus norvegicus) (UniProt P15650).
T3 sequence (whole entry): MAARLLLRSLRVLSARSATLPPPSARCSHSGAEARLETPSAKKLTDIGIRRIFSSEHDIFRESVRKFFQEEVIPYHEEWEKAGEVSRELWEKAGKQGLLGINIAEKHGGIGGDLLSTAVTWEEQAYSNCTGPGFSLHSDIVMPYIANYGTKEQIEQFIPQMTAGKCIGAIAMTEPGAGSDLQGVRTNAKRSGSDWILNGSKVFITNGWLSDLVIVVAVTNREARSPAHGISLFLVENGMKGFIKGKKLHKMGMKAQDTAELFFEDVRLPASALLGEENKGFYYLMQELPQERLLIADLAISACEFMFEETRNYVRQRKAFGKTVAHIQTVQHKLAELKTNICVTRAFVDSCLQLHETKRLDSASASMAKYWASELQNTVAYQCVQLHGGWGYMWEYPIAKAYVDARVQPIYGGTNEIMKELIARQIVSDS
The experiment can be described thus: Binding affinity to mitochondrial long-chain specific acyl-CoA dehydrogenase in Sprague-Dawley rat heart homogenate after 15 mins by chromatographic analysis relative to rosiglitazone. The class given is tissue-based.

Chain of Protein kinase C and casein kinase substrate in neurons protein 2 (Mus musculus) (Q9WVE8 whole entry): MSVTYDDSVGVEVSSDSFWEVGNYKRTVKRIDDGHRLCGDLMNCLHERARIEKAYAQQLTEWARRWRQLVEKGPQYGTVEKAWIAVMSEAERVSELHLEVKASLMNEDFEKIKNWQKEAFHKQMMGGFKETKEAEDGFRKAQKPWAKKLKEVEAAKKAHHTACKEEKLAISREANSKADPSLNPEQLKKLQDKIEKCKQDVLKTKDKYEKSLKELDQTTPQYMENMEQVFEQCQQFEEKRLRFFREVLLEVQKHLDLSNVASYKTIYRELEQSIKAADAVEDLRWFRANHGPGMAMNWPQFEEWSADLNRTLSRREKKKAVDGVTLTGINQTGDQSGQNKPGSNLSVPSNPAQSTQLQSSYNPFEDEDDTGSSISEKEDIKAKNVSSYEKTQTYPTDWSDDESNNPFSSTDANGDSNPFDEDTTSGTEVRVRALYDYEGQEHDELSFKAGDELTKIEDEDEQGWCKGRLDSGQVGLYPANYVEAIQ
Chain of Afadin- and alpha-actinin-binding protein (Rattus norvegicus) (Q8CGZ2 whole entry): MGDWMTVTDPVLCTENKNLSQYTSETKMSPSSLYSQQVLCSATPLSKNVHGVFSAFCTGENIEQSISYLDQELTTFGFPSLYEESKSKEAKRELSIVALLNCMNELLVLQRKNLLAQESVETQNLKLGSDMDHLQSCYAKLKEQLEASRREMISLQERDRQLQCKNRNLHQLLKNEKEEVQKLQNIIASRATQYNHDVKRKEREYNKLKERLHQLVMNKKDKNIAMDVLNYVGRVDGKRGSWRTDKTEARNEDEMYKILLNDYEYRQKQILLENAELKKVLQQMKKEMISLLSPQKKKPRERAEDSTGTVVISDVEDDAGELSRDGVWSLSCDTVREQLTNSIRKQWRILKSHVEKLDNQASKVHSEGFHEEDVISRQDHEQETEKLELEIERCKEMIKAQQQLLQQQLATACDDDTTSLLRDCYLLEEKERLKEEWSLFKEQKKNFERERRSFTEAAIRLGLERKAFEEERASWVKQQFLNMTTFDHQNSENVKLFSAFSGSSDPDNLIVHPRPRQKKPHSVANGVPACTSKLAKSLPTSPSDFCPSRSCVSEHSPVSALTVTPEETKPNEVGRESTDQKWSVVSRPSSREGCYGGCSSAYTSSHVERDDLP
Chain of ATP synthase F(1) complex subunit alpha, mitochondrial (Rattus norvegicus) (P15999 whole entry, one chain of several): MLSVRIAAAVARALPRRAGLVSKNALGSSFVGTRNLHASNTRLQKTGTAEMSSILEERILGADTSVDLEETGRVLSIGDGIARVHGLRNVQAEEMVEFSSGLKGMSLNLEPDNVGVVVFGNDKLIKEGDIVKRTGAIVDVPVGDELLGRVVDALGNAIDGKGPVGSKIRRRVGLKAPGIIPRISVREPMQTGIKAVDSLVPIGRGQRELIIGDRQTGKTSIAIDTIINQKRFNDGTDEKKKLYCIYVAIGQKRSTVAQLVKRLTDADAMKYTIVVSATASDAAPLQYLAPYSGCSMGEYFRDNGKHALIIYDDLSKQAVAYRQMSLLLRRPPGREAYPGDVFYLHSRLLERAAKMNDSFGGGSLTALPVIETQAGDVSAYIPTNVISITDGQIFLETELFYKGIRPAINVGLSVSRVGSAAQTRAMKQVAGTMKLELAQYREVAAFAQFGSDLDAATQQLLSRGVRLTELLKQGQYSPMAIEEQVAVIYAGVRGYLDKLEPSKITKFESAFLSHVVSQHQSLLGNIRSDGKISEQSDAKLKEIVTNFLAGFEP
Chain of Transcription factor SOX-5 (Mus musculus) (P35710 whole entry): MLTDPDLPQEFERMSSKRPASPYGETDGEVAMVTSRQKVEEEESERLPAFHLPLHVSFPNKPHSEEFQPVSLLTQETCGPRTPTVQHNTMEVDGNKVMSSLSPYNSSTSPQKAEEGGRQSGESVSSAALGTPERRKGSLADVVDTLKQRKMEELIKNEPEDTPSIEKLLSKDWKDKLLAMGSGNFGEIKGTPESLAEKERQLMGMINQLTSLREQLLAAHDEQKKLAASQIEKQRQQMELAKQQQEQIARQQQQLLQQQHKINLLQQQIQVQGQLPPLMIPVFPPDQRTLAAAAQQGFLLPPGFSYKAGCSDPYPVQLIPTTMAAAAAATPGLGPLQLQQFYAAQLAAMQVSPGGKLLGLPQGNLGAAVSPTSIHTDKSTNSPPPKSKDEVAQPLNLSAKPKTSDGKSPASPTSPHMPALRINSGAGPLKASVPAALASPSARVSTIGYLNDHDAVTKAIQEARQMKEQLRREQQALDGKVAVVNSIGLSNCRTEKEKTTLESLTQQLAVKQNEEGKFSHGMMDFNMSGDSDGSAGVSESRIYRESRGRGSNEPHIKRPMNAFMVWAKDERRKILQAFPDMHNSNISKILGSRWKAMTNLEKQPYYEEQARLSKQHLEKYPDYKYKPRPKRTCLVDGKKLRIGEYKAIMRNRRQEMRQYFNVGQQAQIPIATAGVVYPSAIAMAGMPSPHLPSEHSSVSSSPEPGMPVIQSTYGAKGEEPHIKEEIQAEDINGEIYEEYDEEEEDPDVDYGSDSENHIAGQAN
Chain of 26S proteasome non-ATPase regulatory subunit 1 (Rattus norvegicus) (O88761 whole entry): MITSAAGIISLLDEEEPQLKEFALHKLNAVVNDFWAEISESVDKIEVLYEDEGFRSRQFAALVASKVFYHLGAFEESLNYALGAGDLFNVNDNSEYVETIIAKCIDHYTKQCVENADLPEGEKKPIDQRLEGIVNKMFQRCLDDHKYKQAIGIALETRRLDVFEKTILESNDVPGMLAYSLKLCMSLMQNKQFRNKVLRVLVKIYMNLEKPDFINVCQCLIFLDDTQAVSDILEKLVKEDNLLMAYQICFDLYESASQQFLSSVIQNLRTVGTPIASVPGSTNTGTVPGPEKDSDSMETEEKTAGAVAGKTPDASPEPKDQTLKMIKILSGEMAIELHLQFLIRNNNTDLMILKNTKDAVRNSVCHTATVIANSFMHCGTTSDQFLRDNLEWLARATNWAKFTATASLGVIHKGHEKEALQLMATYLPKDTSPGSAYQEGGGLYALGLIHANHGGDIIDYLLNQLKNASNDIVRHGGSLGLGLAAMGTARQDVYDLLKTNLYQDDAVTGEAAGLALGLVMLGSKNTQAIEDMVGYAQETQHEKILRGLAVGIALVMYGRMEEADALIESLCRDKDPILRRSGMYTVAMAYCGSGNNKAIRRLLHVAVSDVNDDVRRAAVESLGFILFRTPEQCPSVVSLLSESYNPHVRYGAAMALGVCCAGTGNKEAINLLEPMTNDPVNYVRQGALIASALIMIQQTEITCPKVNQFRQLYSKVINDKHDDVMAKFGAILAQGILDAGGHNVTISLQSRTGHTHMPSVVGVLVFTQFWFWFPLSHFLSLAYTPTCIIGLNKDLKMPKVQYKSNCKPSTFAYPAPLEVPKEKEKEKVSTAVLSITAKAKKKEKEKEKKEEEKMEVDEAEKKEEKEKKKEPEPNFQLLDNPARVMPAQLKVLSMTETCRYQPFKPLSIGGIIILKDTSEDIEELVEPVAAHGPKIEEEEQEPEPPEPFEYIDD
Chain of Endoplasmic reticulum membrane adapter protein XK (Mus musculus) (Q9QXY7 whole entry): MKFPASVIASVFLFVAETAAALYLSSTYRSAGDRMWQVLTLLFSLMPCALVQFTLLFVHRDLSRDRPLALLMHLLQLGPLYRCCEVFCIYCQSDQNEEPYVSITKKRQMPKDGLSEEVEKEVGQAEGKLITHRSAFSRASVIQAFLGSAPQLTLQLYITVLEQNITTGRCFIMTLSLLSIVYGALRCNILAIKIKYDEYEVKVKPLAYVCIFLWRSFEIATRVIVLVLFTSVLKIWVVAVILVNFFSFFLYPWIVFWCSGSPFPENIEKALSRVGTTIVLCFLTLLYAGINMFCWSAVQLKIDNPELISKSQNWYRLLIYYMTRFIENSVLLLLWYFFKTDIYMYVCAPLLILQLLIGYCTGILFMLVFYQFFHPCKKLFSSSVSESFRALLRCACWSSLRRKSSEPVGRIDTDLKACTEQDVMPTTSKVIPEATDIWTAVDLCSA
Chain of Importin-7 (Mus musculus) (Q9EPL8 whole entry): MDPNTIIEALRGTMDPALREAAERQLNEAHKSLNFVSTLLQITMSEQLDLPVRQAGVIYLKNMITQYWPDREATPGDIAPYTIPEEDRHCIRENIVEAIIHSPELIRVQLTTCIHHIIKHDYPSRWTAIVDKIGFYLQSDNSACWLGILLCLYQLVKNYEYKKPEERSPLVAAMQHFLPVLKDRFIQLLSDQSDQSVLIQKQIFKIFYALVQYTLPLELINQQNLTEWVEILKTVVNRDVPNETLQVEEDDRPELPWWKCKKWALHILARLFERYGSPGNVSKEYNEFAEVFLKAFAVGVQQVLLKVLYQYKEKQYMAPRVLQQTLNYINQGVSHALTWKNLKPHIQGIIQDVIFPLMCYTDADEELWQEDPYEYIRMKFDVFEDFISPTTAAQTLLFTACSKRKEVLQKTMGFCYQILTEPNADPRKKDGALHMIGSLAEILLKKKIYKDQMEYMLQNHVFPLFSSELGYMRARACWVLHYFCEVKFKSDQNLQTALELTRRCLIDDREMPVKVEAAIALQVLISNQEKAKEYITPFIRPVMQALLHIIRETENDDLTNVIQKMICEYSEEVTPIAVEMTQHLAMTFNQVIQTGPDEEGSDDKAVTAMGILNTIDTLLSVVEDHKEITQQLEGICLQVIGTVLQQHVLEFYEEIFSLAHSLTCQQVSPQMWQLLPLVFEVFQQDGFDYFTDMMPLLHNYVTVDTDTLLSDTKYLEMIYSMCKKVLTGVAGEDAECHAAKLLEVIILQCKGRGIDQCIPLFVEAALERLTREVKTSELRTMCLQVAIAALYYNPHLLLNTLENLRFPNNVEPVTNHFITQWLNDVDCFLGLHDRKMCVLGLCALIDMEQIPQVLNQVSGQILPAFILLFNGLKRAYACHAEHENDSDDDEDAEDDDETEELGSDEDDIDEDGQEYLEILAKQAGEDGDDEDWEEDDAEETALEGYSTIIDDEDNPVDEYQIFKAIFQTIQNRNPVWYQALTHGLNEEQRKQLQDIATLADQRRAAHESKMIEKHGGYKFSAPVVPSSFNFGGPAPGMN
Chain of Norrin (Mus musculus) (P48744 whole entry): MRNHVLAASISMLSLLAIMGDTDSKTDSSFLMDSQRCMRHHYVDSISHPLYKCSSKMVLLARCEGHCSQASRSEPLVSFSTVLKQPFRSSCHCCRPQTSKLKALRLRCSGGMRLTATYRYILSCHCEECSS

For `CN(CCOc1ccc(CC2SC(=O)NC2=O)cc1)c1ccccn1` (stereo not drawn), the outcome in experiment [1], in [2], in experiment [3], in experiment [4], in experiment [5] and in experiment [6] was Active. Further, the outcome (in [7]; in experiment [8]; in experiment [9]; on Dystonin (Mus musculus); in [10]; in experiment [11]) was Active. In addition, the result (in [13]; in [15]; in experiment [16]; in experiment [19]; at Norrin (Mus musculus); in [20]) was Active. Besides, the outcome in [21] was Active. Also, the outcome in [12] and in experiment [14] was inactive. Besides, the fold change (FC) in experiment [17] was 1.88; in experiment [18], 2.12.
Regarding `CCc1ccc(CCOc2ccc(CC3SC(=O)NC3=O)cc2)nc1` (stereo not drawn), the result in experiment [1], in experiment [2], in experiment [3], in experiment [4], in experiment [5] and in experiment [6] was Active. For the same compound, the result (in experiment [7]; in experiment [8]; in experiment [9]; on Dystonin (Mus musculus); in experiment [10]; in experiment [11]) was Active. For the same compound, the outcome in [12], in [13], in experiment [14], in experiment [15], in [17] and in [18] was Active. Further, the outcome in experiment [20] and in experiment [21] was Active. Also, the fold change (FC) is 3.24 in experiment [16], 1.88 in experiment [20] and 5.78 in [21]. For the same compound, the result (in experiment [19]; at Norrin (Mus musculus)) was inactive.
